Measured values published in US6462023B1, “Cytostatic agents” (British Biotech Pharmaceuticals, Ltd., priority 1988, dated 2002).

What was measured:
[1] = test system: histiocytic lymphoma (U937); test: cell proliferation assay ([methyl-3H] thymidine incorporation), U937; assay type: cell-based, human; conditions: Homo sapiens, U-937; Table 1; final concentration 6 μM; 72 hours in culture, 3 hours pulse; n=6; read-out: U937: percentage of control 3[H] Thymidine incorporation
Procedure: (§1) Two human cell lines namely a histiocytic lymphoma (U937) and a melanoma (RPMI-7951) were seeded into 30 mm^2 tissue culture wells, in the appropriate culture medium supplemented with 10% fetal calf serum at a density of 250 cells/mm^2. Six hours later the test compounds were added in the same culture medium to the cells to give a final concentration of 6 μM. Control wells contained cells supplemented with the same culture medium containing the equivalent amount of drug vehicle, which in this case was DMSO at a final concentration of 0.08%. After 72 hours in culture the cells were pulsed for 3 hours with [methyl-^3[H] Thymidine] (2 μCi/ml) and then harvested onto filter mats and DNA associated radioactivity counted. Results are expressed as percentage of control ^3[H] Thymidine incorporation (n=6±1 stdv).
Further examples were tested in the U937 assay described above at 6 μM and the results, expressed as percentage of control ^3[H] Thymidine incorporation (n=6±1 stdv), are set out in the following Table 2.
as §1, with “A” for “Two”, “line,” for “lines”, “(U937), was” for “(U937) and a melanoma (RPMI-7951) were”, “30MM^2” for “30 mm^2”, “cellS/MM^2.” for “cells/mm^2.”, “were” for “are”

melanoma (RPMI-7951) = test: cell proliferation assay ([methyl-3H] thymidine incorporation), RPMI-7951; assay type: cell-based, human; conditions: Table 1; final concentration 6 μM; 72 hours in culture, 3 hours pulse; n=6
Procedure: as §1

C=CC[C@H](C(=O)NO)[C@@H](CC(C)C)C(=O)N[C@@H](Cc1ccccc1)C(=O)OCC [Example 2, 2S-(3S-Hydroxycarbamoyl-2R-isobutyl-hex-5-enoylamino)-3-phenylpropionic acid ethyl ester]
activity at 6 µM [1]: 7%
RPMI: percentage of control 3[H] Thymidine incorporation (melanoma (RPMI-7951)): 37 percentage of control
